This is an account of results in patent US11773077B2, “Compounds containing carbon-carbon linker as GPR120 agonists” (PIRAMAL ENTERPRISES LIMITED, priority 2015, dated 2023).

pEC50: −log10 of the molar value.

Usually pEC50 stands for the EC50 on a negative log10 scale, so that one unit is a factor of ten.

This assay has as its target T1, GPR120L (Long Isoform) receptor (Homo sapiens, UniProt Q5NUL3).
T1 construct: expressed in transfected cells; similar procedure in HEK 293 cells
T1 sequence (Q5NUL3 1-377 isoform Q5NUL3-1): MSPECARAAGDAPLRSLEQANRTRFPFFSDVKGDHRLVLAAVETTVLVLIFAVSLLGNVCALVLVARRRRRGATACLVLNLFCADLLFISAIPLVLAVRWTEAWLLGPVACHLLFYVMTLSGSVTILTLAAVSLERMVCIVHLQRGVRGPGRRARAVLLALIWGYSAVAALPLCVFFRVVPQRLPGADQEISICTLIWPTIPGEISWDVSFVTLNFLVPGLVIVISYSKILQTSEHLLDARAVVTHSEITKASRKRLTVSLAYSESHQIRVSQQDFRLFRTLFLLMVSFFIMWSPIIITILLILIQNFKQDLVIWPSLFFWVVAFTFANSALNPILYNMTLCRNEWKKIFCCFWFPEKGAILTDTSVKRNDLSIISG
Nature of the assay: Beta (β) arrestin 2 Interaction Assay (β-galactosidase enzyme fragment complementation). Format: cell-based. The conditions noted are these: β-arrestin recruitment; CHO-K1 cells stably expressing GPR120L, similar procedure for HEK 293 cells; 2 hours incubation. The procedure:
Beta (β) arrestin 2 Interaction Assay […] was performed using CHO-K1 cells stably expressing the GPR120L (Long Isoform) receptor using β-galactosidase (Beta gal) enzyme fragment complementation assay. The measurement of GPR120 activation upon agonist activation was directly provided by β-arrestin recruitment. One day before the β-arrestin 2 assay, CHO-K1 cells were seeded and incubated overnight at 37° C. in a 5% CO2 humidified atmosphere. Cells were treated with the test compounds in various concentrations ranging from 30 μM to 1 nM and incubated for 2 hours for GPCR (GPR120) activation. Extent of Arrestin recruitment was measured by adding detection reagents for Beta gal complementation assay, and was further incubated for 1 hour. The chemiluminescent signal was detected on Polar Star (BMG Labtech). The dose-response curve was analyzed using Sigma Plot/Graph Pad. The EC50 (concentration of the test compounds where 50% of compounds' maximal activity is observed) values were calculated from the dose-response curve.
On the technique in general: Activated receptors often draw arrestin, which recruitment assays turn into a signal.

As for `Cc1ccc(-c2ccc(F)cc2C#Cc2ccc(CCCC(=O)O)nc2)s1` [Compound 3, 4-(5-((5-Fluoro-2-(5-methylthiophen-2-yl)phenyl)ethynyl)pyridin-2-yl)butanoic acid], the negative logarithm of the EC50 (pEC50) is 5.00 to 5.30.

Turning to `Cc1ccc(-c2ccc(F)cc2CC(F)(F)c2ccc(CCCC(=O)O)cc2)s1` [Compound 5, 4-(4-(1,1-Difluoro-2-(5-fluoro-2-(5-methylthiophen-2-yl)phenyl)ethyl)phenyl)butanoic acid], the negative logarithm of the EC50 (pEC50) was 6.30 to 7.30.

In the case of `CC1(c2ccc(-c3ccc(F)cc3C=Cc3ccc(CCCC(=O)O)cc3)s2)CC1` [Compound 14, 4-(4-(5-fluoro-2-(5-(1-methylcyclopropyl)thiophen-2-yl)styryl)phenyl)butanoic acid], the pEC50 is 6.30 to 7.30.

`COc1ccc(-c2ccc(F)cc2CC(F)(F)c2ccc(CCCC(=O)O)cc2)cn1` [Compound 20, 4-(4-(1,1-difluoro-2-(5-fluoro-2-(6-methoxypyridin-3-yl)phenyl)ethyl)phenyl)butanoic acid] gave a negative-log EC50 (pEC50) of 6.30 to 7.30.

As for `N#CC1(c2ccc(-c3ccc(F)cc3C#Cc3ccc(CCCC(=O)O)cc3)s2)CC1` [Compound 11, 4-(4-((2-(5-(1-Cyanocyclopropyl)thiophen-2-yl)-5-fluorophenyl)ethynyl)phenyl)butanoic acid], the pEC50 was 5.30 to 6.30.

Consider `CC1(c2ccc(-c3ccc(F)cc3CC(F)(F)c3ccc(CCCC(=O)O)cc3)s2)CC1` [Compound 6, 4-(4-(1,1-Difluoro-2-(5-fluoro-2-(5-(1-methylcyclopropyl)thiophen-2-yl)phenyl)ethyl)phenyl)butanoic acid], for which the pEC50 is 5.30 to 6.30.

As to `O=C(O)CCCc1ccc(C#Cc2cc(F)ccc2-c2ccc(C3CC3)s2)cc1` [Compound 18, 4-(4-((2-(5-cyclopropylthiophen-2-yl)-5-fluorophenyl)ethynyl)phenyl)butanoic acid], the pEC50 is 6.30 to 7.30.

Take `O=C(O)CCCc1ccc(CCc2cc(F)ccc2-c2nc3c(s2)CCCC3)cc1` [Compound 12, 4-(4-(5-fluoro-2-(4,5,6,7-tetrahydrobenzo[d]thiazol-2-yl)phenethyl)phenyl)butanoic acid]: the pEC50 is 6.30 to 7.30.
